*1 amine or outer side, *2 acyl side, *3 side chain or, on linkers, in order; H or OH if unused. Where a SMILES comes first, the peptide text is derived from it. Bridges are numbered along the chain shown (N, C = ends). [ ]: non-standard residue; d: D form. The star is where a group is joined. ξ: configuration not given here. X2 = O=C(O)CN1CCN(CC(=O)O)CCN(CC(=O)NCCCOCCOCCOCCCN*)CCN(CC(=O)O)CC1; DOTA = O=C(O)CN1CCN(CC(=O)O)CCN(CC(=O)*)CCN(CC(=O)O)CC1; Trp(5-F) = N[C@@H](Cc1c[nH]c2ccc(F)cc12)C(=O)O; PEG8 = NCCOCCOCCOCCOCCOCCOCCOCCOCCC(=O)O; X1 = O=C(C[C@H]1CC[C@H](N[*:1])CC1)[*:2]; 1Nal = N[C@@H](Cc1cccc2ccccc12)C(=O)O; 2Nal = N[C@@H](Cc1ccc2ccccc2c1)C(=O)O; Suc = O=C(CCC(=O)[*:2])[*:1]; ξIle = CC[C@H](C)C(N)C(=O)O; Ahx = NCCCCCC(=O)O; ξP = O=C(O)C1CCCN1; Sar = CNCC(=O)O
molecular target: T1, human DLL3 (Homo sapiens, UniProt Q9NYJ7); assay: Affinity determination by Surface Plasmon Resonance (SPR), biotinylated human DLL3 immobilized on streptavidin sensor chip; details: 25° C., Biacore, 1:1 binding model
T1 construct: biotin (biotinylated)
T1 sequence (Q9NYJ7 27-618): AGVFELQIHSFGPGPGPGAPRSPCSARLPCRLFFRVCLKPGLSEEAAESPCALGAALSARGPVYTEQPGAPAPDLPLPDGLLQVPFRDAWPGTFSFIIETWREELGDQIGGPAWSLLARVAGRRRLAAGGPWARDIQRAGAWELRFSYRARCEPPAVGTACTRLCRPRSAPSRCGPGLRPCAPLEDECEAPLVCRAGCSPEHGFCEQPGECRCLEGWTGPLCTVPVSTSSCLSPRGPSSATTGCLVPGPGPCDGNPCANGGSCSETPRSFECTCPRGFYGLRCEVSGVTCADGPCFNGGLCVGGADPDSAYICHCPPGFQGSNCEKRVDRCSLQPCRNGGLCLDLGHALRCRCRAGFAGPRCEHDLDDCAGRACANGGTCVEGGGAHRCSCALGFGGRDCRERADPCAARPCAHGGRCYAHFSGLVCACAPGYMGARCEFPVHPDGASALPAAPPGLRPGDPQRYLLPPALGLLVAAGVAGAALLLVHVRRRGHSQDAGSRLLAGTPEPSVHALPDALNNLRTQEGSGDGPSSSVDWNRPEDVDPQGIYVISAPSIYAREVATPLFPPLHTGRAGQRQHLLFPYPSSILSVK
Experimental: Affinity Determination by Surface Plasmon Resonance (SPR). SPR studies were performed on the compounds disclosed herein using the following protocol.
The binding affinity and binding kinetic parameters at 25° C. were determined using Biacore S200 or biacore 8K instrument. Biotinylated target ligand human DLL3 was immobilized on a streptavidin sensor chip. A reference surface was set up for nonspecific binding and refractive index changes. For analysis of the kinetics of interactions, varying concentrations of samples were injected at a flow rate of 100 μL/min using running buffer containing 20 mM phosphate buffer with 2.7 mM KCl, 137 mM NaCl, 0.05% Surfactant P20 and 2% DMSO. Sensorgram curves were fitted with 1:1 binding model, and affinity and kinetic parameters were obtained using Biacore Insight evaluation 4.0. software.

SMILES | Kd
CC[C@H](C)[C@H](NC(=O)[C@@H](NC(=O)[C@H](Cc1c[nH]c2ccccc12)NC(=O)CN1CCN(CC(=O)O)CCN(CC(=O)O)CCN(CC(=O)O)CC1)[C@@H](C)O)C(=O)N[C@H]1CSSC[C@@H](C(=O)N[C@@H](Cc2c[nH]c3ccccc23)C(=O)N2CCC[C@H]2C(N)=O)NC(=O)[C@H](CC(=O)O)NC(=O)[C@H](Cc2cnc[nH]2)NC(=O)[C@H](Cc2c[nH]c3ccccc23)NC(=O)[C@H](CC(N)=O)NC(=O)[C@H](CC(N)=O)NC1=O [compound 17, DOTA-W-T-I-C(3)-N-N-W-H-D-C(3)-W-P-CONH2] ({DOTA}-WTICNNWHDCWP-NH2; disulfide 4-10) | 10 to 100 nM
CC[C@H](C)[C@H](NC(=O)[C@@H](NC(=O)[C@H](Cc1c[nH]c2ccccc12)NC(=O)C[C@H]1CC[C@H](NC(=O)CN2CCN(CC(=O)O)CCN(CC(=O)O)CCN(CC(=O)O)CC2)CC1)[C@@H](C)O)C(=O)N[C@H]1CSSC[C@@H](C(=O)N[C@@H](Cc2c[nH]c3ccccc23)C(=O)N2CCC[C@H]2C(N)=O)NC(=O)[C@H](CC(=O)O)NC(=O)[C@H](Cc2cnc[nH]2)NC(=O)[C@H](Cc2c[nH]c3ccccc23)NC(=O)[C@H](CC(N)=O)NC(=O)[C@H](CC(N)=O)NC1=O [compound 19, DOTA-CyHex-W-T-I-C(3)-N-N-W-H-D-C(3)-W-P-CONH2] ({DOTA}-[X1]WTICNNWHDCWP-NH2; disulfide 5-11) | 10 to 100 nM
CC[C@H](C)[C@H](NC(=O)[C@@H](NC(=O)[C@H](Cc1c[nH]c2ccccc12)NC(=O)CCOCCOCCOCCOCCOCCOCCOCCOCCNC(=O)CN1CCN(CC(=O)O)CCN(CC(=O)O)CCN(CC(=O)O)CC1)[C@@H](C)O)C(=O)N[C@H]1CSSC[C@@H](C(=O)N[C@@H](Cc2c[nH]c3ccccc23)C(=O)N2CCC[C@H]2C(N)=O)NC(=O)[C@H](CC(=O)O)NC(=O)[C@H](Cc2cnc[nH]2)NC(=O)[C@H](Cc2c[nH]c3ccccc23)NC(=O)[C@H](CC(N)=O)NC(=O)[C@H](CC(N)=O)NC1=O [compound 20, DOTA-PEG8-W-T-I-C(3)-N-N-W-H-D-C(3)-W-P-CONH2] ({DOTA-PEG8}-WTICNNWHDCWP-NH2; disulfide 4-10) | 10 to 100 nM
CC[C@H](C)[C@H](NC(=O)[C@@H](NC(=O)[C@H](Cc1c[nH]c2ccccc12)NC(=O)CNC(=O)CNC(=O)CCC(=O)NCCCOCCOCCOCCCNC(=O)CN1CCN(CC(=O)O)CCN(CC(=O)O)CCN(CC(=O)O)CC1)[C@@H](C)O)C(=O)N[C@H]1CSSC[C@@H](C(=O)N[C@@H](Cc2c[nH]c3ccccc23)C(=O)N2CCC[C@H]2C(N)=O)NC(=O)[C@H](CC(=O)O)NC(=O)[C@H](Cc2c[nH]cn2)NC(=O)[C@H](Cc2c[nH]c3ccccc23)NC(=O)[C@H](CC(N)=O)NC(=O)[C@H](CC(N)=O)NC1=O [compound 21] ({X2-Suc}-GGWTICNNWHDCWP-NH2; disulfide 6-12) | 1 to 10 nM
CC[C@H](C)[C@H](NC(=O)[C@@H](NC(=O)[C@H](Cc1c[nH]c2ccccc12)NC(=O)CN(C)C(=O)CN(C)C(=O)CN(C)C(=O)CN(C)C(=O)CN(C)C(=O)CN1CCN(CC(=O)O)CCN(CC(=O)O)CCN(CC(=O)O)CC1)[C@@H](C)O)C(=O)N[C@H]1CSSC[C@@H](C(=O)N[C@@H](Cc2c[nH]c3ccccc23)C(=O)N2CCCC2C(N)=O)NC(=O)[C@H](CC(=O)O)NC(=O)[C@H](Cc2cnc[nH]2)NC(=O)[C@H](Cc2c[nH]c3ccccc23)NC(=O)[C@H](CC(N)=O)NC(=O)[C@H](CC(N)=O)NC1=O (stereo partly drawn) [compound 22, DOTA-(Sar)5-W-T-I-C(3)-N-N-W-H-D-C(3)-W-P-CONH2] ({DOTA}-[Sar][Sar][Sar][Sar][Sar]WTICNNWHDCW[ξP]-NH2; disulfide 9-15) | 1 to 10 nM

Second part, the compound after the results:

Kd | SMILES
10 to 100 nM | CC[C@H](C)C(NC(=O)[C@@H](NC(=O)[C@H](Cc1c[nH]c2ccccc12)NC(=O)CCCCCNC(=O)CN1CCN(CC(=O)O)CCN(CC(=O)O)CCN(CC(=O)O)CC1)[C@@H](C)O)C(=O)N[C@H]1CSSC[C@@H](C(=O)N[C@@H](Cc2cccc3ccccc23)C(=O)N2CCC[C@H]2C(N)=O)NC(=O)[C@H](CC(=O)O)NC(=O)[C@H](Cc2cnc[nH]2)NC(=O)[C@H](Cc2c[nH]c3ccccc23)NC(=O)[C@H](CC(N)=O)NC(=O)[C@H](CC(N)=O)NC1=O (stereo partly drawn) [compound 54, DOTA-Ahx-W-T-I-C(3)-N-N-W-H-D-C(3)-(1Nal)-P-CONH2] ({DOTA-Ahx}-WT[ξIle]CNNWHDC[1Nal]P-NH2; disulfide 4-10)
100 to 300 nM | CC[C@H](C)C(NC(=O)[C@@H](NC(=O)[C@H](Cc1c[nH]c2ccccc12)NC(=O)CCCCCNC(=O)CN1CCN(CC(=O)O)CCN(CC(=O)O)CCN(CC(=O)O)CC1)[C@@H](C)O)C(=O)N[C@H]1CSSC[C@@H](C(=O)N[C@@H](Cc2ccc3ccccc3c2)C(=O)N2CCC[C@H]2C(N)=O)NC(=O)[C@H](CC(=O)O)NC(=O)[C@H](Cc2cnc[nH]2)NC(=O)[C@H](Cc2c[nH]c3ccccc23)NC(=O)[C@H](CC(N)=O)NC(=O)[C@H](CC(N)=O)NC1=O (stereo partly drawn) [compound 55, DOTA-Ahx-W-T-I-C(3)-N-N-W-H-D-C(3)-(2Nal)-P-CONH2] ({DOTA-Ahx}-WT[ξIle]CNNWHDC[2Nal]P-NH2; disulfide 4-10)
10 to 100 nM | CC[C@H](C)C(NC(=O)[C@@H](NC(=O)[C@H](Cc1c[nH]c2ccccc12)NC(=O)CCCCCNC(=O)CN1CCN(CC(=O)O)CCN(CC(=O)O)CCN(CC(=O)O)CC1)[C@@H](C)O)C(=O)N[C@H]1CSSC[C@@H](C(=O)N[C@@H](Cc2c[nH]c3ccccc23)C(=O)N2CCC[C@H]2C(N)=O)NC(=O)[C@H](CC(=O)O)NC(=O)[C@H](Cc2cnc[nH]2)NC(=O)[C@H](Cc2cccc3ccccc23)NC(=O)[C@H](CC(N)=O)NC(=O)[C@H](CC(N)=O)NC1=O (stereo partly drawn) [compound 56, DOTA-Ahx-W-T-I-C(3)-N-N-(1Nal)-H-D-C(3)-W-P-CONH2] ({DOTA-Ahx}-WT[ξIle]CNN[1Nal]HDCWP-NH2; disulfide 4-10)
1 to 10 nM | CC[C@H](C)C(NC(=O)[C@@H](NC(=O)[C@H](Cc1c[nH]c2ccccc12)NC(=O)CCCCCNC(=O)CN1CCN(CC(=O)O)CCN(CC(=O)O)CCN(CC(=O)O)CC1)[C@@H](C)O)C(=O)N[C@H]1CSSC[C@@H](C(=O)N[C@@H](Cc2c[nH]c3ccccc23)C(=O)N2CCC[C@H]2C(N)=O)NC(=O)[C@H](CC(=O)O)NC(=O)[C@H](Cc2cnc[nH]2)NC(=O)[C@H](Cc2ccc3ccccc3c2)NC(=O)[C@H](CC(N)=O)NC(=O)[C@H](CC(N)=O)NC1=O (stereo partly drawn) [compound 57, DOTA-Ahx-W-T-I-C(3)-N-N-(2Nal)-H-D-C(3)-W-P-CONH2] ({DOTA-Ahx}-WT[ξIle]CNN[2Nal]HDCWP-NH2; disulfide 4-10)
1 to 10 nM | CC[C@H](C)[C@H](NC(=O)[C@@H](NC(=O)[C@H](Cc1c[nH]c2ccc(F)cc12)NC(=O)CCCCCNC(=O)CN1CCN(CC(=O)O)CCN(CC(=O)O)CCN(CC(=O)O)CC1)[C@@H](C)O)C(=O)N[C@H]1CSSC[C@@H](C(=O)N[C@@H](Cc2c[nH]c3ccccc23)C(=O)N2CCC[C@H]2C(N)=O)NC(=O)[C@H](CC(=O)O)NC(=O)[C@H](Cc2cnc[nH]2)NC(=O)[C@H](Cc2c[nH]c3ccccc23)NC(=O)[C@H](CC(N)=O)NC(=O)[C@H](CC(N)=O)NC1=O [compound 58, DOTA-Ahx-(5Fluoro-W)-T-I-C(3)-N-N-W-H-D-C(3)-W-P-CONH2] ({DOTA-Ahx}-[Trp(5-F)]TICNNWHDCWP-NH2; disulfide 4-10)

From patent US20250034210A1, “DLL3 TARGETING PEPTIDES AND CONSTRUCTS THEREOF” (MARIANA ONCOLOGY INC., priority 2023, published 2025)
